Source: ChEMBL document CHEMBL4507287, “Data for DCP probe MRL-650” (2021)

Assays:
[1] = system: Tyrosine-protein kinase ABL1 (Homo sapiens), P00519 [F317L]; conditions: Compound concentration 1000.0 nM
[2] = target: Tyrosine-protein kinase ABL2 (Homo sapiens) (UniProt P42684); conditions: Compound concentration 1000.0 nM
[3] = system: ALK tyrosine kinase receptor (Homo sapiens), Q9UM73 [L1196M]; conditions: Compound concentration 1000.0 nM
[4] = system: Serine/threonine-protein kinase B-raf (Homo sapiens), P15056 [V600E]; conditions: Compound concentration 1000.0 nM
[5] = target: Serine/threonine-protein kinase BRSK2 (Homo sapiens) (UniProt Q8IWQ3); conditions: Compound concentration 1000.0 nM
[6] = target: Calcium/calmodulin-dependent protein kinase type II subunit delta (Homo sapiens) (UniProt Q13557); conditions: Compound concentration 1000.0 nM
[7] = target: Cyclin-dependent kinase 11A (Homo sapiens) (UniProt Q9UQ88); conditions: Compound concentration 1000.0 nM
[8] = target: Cyclin-dependent kinase 8 (Homo sapiens) (UniProt P49336); conditions: Compound concentration 1000.0 nM
[9] = target: Dual specificity protein kinase CLK3 (Homo sapiens) (UniProt P49761); conditions: Compound concentration 1000.0 nM
[10] = target: Casein kinase I isoform gamma-1 (Homo sapiens) (UniProt Q9HCP0); conditions: Compound concentration 1000.0 nM
[11] = target: Death-associated protein kinase 3 (Homo sapiens) (UniProt O43293); conditions: Compound concentration 1000.0 nM
Sequence of Death-associated protein kinase 3 (Homo sapiens) (O43293 whole entry, looked up): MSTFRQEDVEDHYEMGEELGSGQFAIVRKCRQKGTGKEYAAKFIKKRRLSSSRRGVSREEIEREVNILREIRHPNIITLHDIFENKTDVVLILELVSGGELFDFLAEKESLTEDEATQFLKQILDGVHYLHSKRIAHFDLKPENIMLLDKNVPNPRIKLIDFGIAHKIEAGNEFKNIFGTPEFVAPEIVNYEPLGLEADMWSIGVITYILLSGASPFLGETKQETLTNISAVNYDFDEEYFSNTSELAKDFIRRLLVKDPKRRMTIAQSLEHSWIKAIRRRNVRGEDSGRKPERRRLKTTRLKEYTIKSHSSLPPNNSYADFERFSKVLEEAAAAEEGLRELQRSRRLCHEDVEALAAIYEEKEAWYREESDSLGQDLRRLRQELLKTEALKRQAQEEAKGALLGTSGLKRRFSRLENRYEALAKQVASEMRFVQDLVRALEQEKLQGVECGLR

[12] = target: Receptor tyrosine-protein kinase erbB-2 (Homo sapiens) (UniProt P04626); conditions: Compound concentration 1000.0 nM
[13] = target: Receptor tyrosine-protein kinase erbB-3 (Homo sapiens) (UniProt P21860); conditions: Compound concentration 1000.0 nM
[14] = target: Mitogen-activated protein kinase 7 (Homo sapiens) (UniProt Q13164); conditions: Compound concentration 1000.0 nM
[15] = target: Receptor-type tyrosine-protein kinase FLT3 (Homo sapiens) (UniProt P36888); conditions: Compound concentration 1000.0 nM
Sequence of Receptor-type tyrosine-protein kinase FLT3 (Homo sapiens) (P36888 whole entry): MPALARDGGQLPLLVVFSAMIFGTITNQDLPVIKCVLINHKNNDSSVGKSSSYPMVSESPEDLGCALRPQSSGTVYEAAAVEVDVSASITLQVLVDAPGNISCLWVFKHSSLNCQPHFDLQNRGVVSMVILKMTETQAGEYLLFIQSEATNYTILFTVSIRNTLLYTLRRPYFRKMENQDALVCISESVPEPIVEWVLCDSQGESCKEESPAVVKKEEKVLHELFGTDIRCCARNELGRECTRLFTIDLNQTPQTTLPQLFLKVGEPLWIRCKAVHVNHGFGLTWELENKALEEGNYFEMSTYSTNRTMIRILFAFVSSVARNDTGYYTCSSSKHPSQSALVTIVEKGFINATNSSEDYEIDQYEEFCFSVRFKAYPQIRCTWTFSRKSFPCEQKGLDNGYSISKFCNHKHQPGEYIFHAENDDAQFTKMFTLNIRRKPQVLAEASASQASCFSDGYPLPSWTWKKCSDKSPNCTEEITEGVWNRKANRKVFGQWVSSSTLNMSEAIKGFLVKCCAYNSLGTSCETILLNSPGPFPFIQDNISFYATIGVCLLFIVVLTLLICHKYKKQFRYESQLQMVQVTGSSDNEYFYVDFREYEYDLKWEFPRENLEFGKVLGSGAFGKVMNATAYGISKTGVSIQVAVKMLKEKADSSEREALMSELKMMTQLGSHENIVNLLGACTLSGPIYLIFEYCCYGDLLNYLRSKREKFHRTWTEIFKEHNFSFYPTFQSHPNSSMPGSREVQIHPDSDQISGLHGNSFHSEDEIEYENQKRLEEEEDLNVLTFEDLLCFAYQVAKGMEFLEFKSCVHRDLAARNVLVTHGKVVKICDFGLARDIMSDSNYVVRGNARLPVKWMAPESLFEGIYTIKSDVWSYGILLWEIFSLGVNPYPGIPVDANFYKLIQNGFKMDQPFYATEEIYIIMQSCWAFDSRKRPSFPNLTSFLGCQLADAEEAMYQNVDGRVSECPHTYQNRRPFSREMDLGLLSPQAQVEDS

[16] = target: Serine/threonine-protein kinase haspin (Homo sapiens) (UniProt Q8TF76); conditions: Compound concentration 1000.0 nM
[17] = target: Insulin receptor (Homo sapiens) (UniProt P06213); conditions: Compound concentration 1000.0 nM
[18] = target: Tyrosine-protein kinase JAK1 (Homo sapiens) (UniProt P23458); conditions: Compound concentration 1000.0 nM
[19] = target: Mast/stem cell growth factor receptor Kit (Homo sapiens) (UniProt P10721); conditions: Compound concentration 1000.0 nM
[20] = target: MAP kinase-activated protein kinase 2 (Homo sapiens) (UniProt P49137); conditions: Compound concentration 1000.0 nM
[21] = target: MAP kinase-activated protein kinase 5 (Homo sapiens) (UniProt Q8IW41); conditions: Compound concentration 1000.0 nM
[22] = target: Microtubule-associated serine/threonine-protein kinase 1 (Homo sapiens) (UniProt Q9Y2H9); conditions: Compound concentration 1000.0 nM
[23] = target: Mitogen-activated protein kinase kinase kinase 11 (Homo sapiens) (UniProt Q16584); conditions: Compound concentration 1000.0 nM
Sequence of Mitogen-activated protein kinase kinase kinase 11 (Homo sapiens) (Q16584 whole entry, looked up): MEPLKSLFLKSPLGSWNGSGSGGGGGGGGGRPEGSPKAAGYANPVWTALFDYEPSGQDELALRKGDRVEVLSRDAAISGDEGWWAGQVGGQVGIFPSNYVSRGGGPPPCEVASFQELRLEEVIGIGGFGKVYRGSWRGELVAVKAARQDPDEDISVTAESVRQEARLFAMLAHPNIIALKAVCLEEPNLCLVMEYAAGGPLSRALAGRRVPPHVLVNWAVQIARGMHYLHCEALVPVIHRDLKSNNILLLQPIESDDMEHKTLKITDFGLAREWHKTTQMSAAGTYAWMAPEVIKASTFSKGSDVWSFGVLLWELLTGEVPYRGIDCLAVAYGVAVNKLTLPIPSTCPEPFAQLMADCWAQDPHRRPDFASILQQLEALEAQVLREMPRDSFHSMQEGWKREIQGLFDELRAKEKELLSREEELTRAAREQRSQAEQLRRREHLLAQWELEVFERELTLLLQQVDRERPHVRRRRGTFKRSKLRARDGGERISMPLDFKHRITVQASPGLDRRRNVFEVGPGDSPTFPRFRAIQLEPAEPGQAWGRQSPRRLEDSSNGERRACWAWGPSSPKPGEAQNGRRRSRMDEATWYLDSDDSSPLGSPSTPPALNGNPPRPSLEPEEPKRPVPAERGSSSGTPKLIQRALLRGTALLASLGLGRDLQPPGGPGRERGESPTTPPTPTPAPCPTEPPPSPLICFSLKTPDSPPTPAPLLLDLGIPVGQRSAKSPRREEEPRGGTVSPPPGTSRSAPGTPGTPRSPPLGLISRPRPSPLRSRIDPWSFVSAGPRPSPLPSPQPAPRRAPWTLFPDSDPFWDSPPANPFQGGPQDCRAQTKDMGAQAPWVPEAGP

[24] = target: Serine/threonine-protein kinase mTOR (Homo sapiens) (UniProt P42345); conditions: Compound concentration 1000.0 nM
[25] = target: Serine/threonine-protein kinase 38 (Homo sapiens) (UniProt Q15208); conditions: Compound concentration 1000.0 nM
[26] = target: Serine/threonine-protein kinase 38-like (Homo sapiens) (UniProt Q9Y2H1); conditions: Compound concentration 1000.0 nM
[27] = target: Serine/threonine-protein kinase Nek10 (Homo sapiens) (UniProt Q6ZWH5); conditions: Compound concentration 1000.0 nM
[28] = target: Serine/threonine-protein kinase NLK (Homo sapiens) (UniProt Q9UBE8); conditions: Compound concentration 1000.0 nM
[29] = target: Mitogen-activated protein kinase 12 (Homo sapiens) (UniProt P53778); conditions: Compound concentration 1000.0 nM
Sequence of Mitogen-activated protein kinase 12 (Homo sapiens) (P53778 whole entry): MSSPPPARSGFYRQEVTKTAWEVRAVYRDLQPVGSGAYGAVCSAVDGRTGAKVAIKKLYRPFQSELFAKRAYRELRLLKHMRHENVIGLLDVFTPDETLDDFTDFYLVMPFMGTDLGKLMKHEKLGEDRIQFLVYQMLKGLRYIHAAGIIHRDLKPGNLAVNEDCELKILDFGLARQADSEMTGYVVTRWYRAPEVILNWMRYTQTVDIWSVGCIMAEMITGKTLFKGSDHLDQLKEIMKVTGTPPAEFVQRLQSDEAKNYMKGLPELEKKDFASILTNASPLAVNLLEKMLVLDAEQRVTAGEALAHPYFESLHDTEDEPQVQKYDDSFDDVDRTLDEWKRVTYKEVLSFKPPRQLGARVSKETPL

[30] = target: Serine/threonine-protein kinase PAK 4 (Homo sapiens) (UniProt O96013); conditions: Compound concentration 1000.0 nM
[31] = system: Phosphatidylinositol 4,5-bisphosphate 3-kinase catalytic subunit alpha isoform (Homo sapiens), P42336 [H1047L]; conditions: Compound concentration 1000.0 nM
[32] = system: Phosphatidylinositol 4,5-bisphosphate 3-kinase catalytic subunit alpha isoform (Homo sapiens), P42336 [H1047Y]; conditions: Compound concentration 1000.0 nM
[33] = target: Phosphatidylinositol 5-phosphate 4-kinase type-2 beta (Homo sapiens) (UniProt P78356); conditions: Compound concentration 1000.0 nM
Sequence of Phosphatidylinositol 5-phosphate 4-kinase type-2 beta (Homo sapiens) (P78356 whole entry): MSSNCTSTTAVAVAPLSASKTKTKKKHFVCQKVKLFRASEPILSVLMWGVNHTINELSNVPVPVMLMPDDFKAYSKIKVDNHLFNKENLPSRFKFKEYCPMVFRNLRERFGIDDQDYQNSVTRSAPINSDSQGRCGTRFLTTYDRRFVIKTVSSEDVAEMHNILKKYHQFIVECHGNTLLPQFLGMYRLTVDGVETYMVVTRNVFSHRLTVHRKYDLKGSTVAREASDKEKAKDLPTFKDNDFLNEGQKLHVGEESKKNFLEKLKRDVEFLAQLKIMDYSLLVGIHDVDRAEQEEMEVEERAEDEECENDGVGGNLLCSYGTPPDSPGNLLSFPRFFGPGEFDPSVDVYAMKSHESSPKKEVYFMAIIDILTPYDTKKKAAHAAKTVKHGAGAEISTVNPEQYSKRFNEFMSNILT

[34] = target: Serine/threonine-protein kinase PLK1 (Homo sapiens) (UniProt P53350); conditions: Compound concentration 1000.0 nM
[35] = target: Serine/threonine-protein kinase PLK2 (Homo sapiens) (UniProt Q9NYY3); conditions: Compound concentration 1000.0 nM
[36] = target: Protein kinase C delta type (Homo sapiens) (UniProt Q05655); conditions: Compound concentration 1000.0 nM
[37] = target: Serine/threonine-protein kinase D2 (Homo sapiens) (UniProt Q9BZL6); conditions: Compound concentration 1000.0 nM
[38] = target: Serine/threonine-protein kinase D3 (Homo sapiens) (UniProt O94806); conditions: Compound concentration 1000.0 nM
Sequence of Serine/threonine-protein kinase D3 (Homo sapiens) (O94806 whole entry): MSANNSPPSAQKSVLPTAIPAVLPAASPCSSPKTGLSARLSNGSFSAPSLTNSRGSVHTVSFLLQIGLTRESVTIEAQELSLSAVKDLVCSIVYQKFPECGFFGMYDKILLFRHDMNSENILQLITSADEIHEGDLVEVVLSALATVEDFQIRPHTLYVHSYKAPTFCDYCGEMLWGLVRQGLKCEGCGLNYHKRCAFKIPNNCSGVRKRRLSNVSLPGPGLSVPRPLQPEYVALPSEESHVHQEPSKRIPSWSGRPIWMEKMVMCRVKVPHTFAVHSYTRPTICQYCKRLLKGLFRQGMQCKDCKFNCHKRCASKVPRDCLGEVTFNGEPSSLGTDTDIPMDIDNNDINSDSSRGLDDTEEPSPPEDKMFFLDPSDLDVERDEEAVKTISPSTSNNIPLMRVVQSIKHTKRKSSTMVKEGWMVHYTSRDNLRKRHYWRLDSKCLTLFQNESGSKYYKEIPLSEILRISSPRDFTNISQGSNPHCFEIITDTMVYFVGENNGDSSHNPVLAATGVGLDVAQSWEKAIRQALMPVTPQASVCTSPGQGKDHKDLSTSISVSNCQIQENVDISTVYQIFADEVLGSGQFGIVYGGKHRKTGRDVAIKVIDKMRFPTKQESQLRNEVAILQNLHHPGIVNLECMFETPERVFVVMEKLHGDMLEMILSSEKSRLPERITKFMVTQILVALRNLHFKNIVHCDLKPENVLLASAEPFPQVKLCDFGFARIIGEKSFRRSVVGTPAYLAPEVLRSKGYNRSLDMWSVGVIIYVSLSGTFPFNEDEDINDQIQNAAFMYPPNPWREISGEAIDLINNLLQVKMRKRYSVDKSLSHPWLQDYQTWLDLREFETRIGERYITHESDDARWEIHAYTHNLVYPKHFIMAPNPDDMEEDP

[39] = target: Serine/threonine-protein kinase Sgk3 (Homo sapiens) (UniProt Q96BR1); conditions: Compound concentration 1000.0 nM
[40] = target: Serine/threonine-protein kinase TAO3 (Homo sapiens) (UniProt Q9H2K8); conditions: Compound concentration 1000.0 nM
Sequence of Serine/threonine-protein kinase TAO3 (Homo sapiens) (Q9H2K8 whole entry): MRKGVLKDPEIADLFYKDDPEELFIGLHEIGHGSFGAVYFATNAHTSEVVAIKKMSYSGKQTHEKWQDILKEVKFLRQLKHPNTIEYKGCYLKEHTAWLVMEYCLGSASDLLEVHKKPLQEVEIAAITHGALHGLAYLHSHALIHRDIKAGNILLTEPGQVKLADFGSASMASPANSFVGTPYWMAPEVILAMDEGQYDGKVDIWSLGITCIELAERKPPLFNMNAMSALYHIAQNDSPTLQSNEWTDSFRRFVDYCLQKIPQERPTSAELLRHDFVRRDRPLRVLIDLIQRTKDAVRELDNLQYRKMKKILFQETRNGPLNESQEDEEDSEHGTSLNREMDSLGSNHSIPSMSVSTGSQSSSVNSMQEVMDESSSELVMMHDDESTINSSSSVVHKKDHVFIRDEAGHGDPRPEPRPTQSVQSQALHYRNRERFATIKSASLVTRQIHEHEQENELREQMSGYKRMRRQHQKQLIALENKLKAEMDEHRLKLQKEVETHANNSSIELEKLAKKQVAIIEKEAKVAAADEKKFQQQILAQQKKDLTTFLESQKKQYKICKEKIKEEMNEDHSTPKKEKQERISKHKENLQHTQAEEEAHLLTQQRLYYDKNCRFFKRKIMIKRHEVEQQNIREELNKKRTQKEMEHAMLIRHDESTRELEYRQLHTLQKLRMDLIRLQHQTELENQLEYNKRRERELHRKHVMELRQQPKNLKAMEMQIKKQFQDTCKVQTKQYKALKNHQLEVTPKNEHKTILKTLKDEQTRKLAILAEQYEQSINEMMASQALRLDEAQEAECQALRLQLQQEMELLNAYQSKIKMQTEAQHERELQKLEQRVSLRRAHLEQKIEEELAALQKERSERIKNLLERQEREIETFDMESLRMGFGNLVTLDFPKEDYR

[41] = target: Serine/threonine-protein kinase ULK2 (Homo sapiens) (UniProt Q8IYT8); conditions: Compound concentration 1000.0 nM
[42] = target: Phosphatidylinositol 3-kinase catalytic subunit type 3 (Homo sapiens) (UniProt Q8NEB9); conditions: Compound concentration 1000.0 nM
[43] = target: 5-hydroxytryptamine receptor 1D (Homo sapiens) (UniProt P28221); conditions: Compound concentration 10.0 uM
[44] = target: Alpha-2A adrenergic receptor (Homo sapiens) (UniProt P08913); conditions: Compound concentration 10.0 uM
[45] = target: Sigma non-opioid intracellular receptor 1 (Homo sapiens, UniProt Q99720); conditions: Compound concentration 10.0 uM

CC(=O)c1c(NS(C)(=O)=O)c2cc(-c3ccc(Cl)cc3)c(-c3ccc(Cl)cc3Cl)nc2n(C)c1=O [MRL-CB1-NC]
active: inhibition [43] 68.5%
inactive: residual activity [1] 75% | residual activity [2] 100% | residual activity [3] 97% | residual activity [4] 88% | residual activity [5] 90% | residual activity [6] 100% | residual activity [7] 98% | residual activity [8] 83% | residual activity [9] 92% | residual activity [10] 92% | residual activity [11] 100% | residual activity [12] 100% | residual activity [13] 85% | residual activity [14] 92% | residual activity [15] 96% | residual activity [16] 92% | residual activity [17] 73% | residual activity [18] 93% | residual activity [19] 100% | residual activity [20] 80% | residual activity [21] 89% | residual activity [22] 100% | residual activity [23] 100% | residual activity [24] 100% | residual activity [25] 77% | residual activity [26] 76% | residual activity [27] 99% | residual activity [28] 72% | residual activity [29] 100% | residual activity [30] 92% | residual activity [31] 96% | residual activity [32] 96% | residual activity [33] 65% | residual activity [34] 87% | residual activity [35] 96% | residual activity [36] 98% | residual activity [37] 88% | residual activity [38] 100% | residual activity [39] 79% | residual activity [40] 72% | residual activity [41] 97% | residual activity [42] 93% | inhibition [44] 19.8% | inhibition [45] -7.46%

CC(=O)Nc1c(C(C)=O)c(=O)n(C)c2nc(-c3ccc(Cl)cc3Cl)c(-c3ccc(Cl)cc3)cc12 [NAPHTHYRIDINONE]
inactive: residual activity [1] 100% | residual activity [2] 100% | residual activity [3] 100% | residual activity [4] 100% | residual activity [5] 100% | residual activity [6] 100% | residual activity [7] 100% | residual activity [8] 100% | residual activity [9] 100% | residual activity [10] 100% | residual activity [11] 100% | residual activity [12] 100% | residual activity [13] 100% | residual activity [14] 100% | residual activity [15] 100% | residual activity [16] 100% | residual activity [17] 100% | residual activity [18] 100% | residual activity [19] 100% | residual activity [20] 100% | residual activity [21] 100% | residual activity [22] 100% | residual activity [23] 100% | residual activity [24] 100% | residual activity [25] 93% | residual activity [26] 87% | residual activity [27] 100% | residual activity [28] 100% | residual activity [29] 100% | residual activity [30] 100% | residual activity [31] 95% | residual activity [32] 100% | residual activity [33] 91% | residual activity [34] 100% | residual activity [35] 100% | residual activity [36] 100% | residual activity [37] 100% | residual activity [38] 100% | residual activity [39] 100% | residual activity [40] 63% | residual activity [41] 100% | residual activity [42] 100% | inhibition [43] 32.9% | inhibition [44] 1.31% | inhibition [45] 50%
